The source of these data is US20250100963A1, “SULFONATED AND PHOSPHORYLATED AROMATIC MOLECULES” (Xavier University of Louisiana, priority 2023, published 2025).

Read-outs that look alike come from different tables or passages of the source.

In test [1] the target is T1, CatG (Homo sapiens, UniProt P08311).
T1 sequence (P08311 21-244): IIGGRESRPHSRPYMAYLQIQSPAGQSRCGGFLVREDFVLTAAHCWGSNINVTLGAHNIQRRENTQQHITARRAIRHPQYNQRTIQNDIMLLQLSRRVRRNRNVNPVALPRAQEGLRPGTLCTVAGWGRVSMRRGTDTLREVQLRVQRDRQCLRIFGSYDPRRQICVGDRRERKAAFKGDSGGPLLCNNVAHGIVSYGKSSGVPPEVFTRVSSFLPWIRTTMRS
In words: CatG-mediated degradation of laminin, SDS-PAGE. The format is biochemical. The conditions noted are these: inhibitor 10-1000 μM, CatG 0.8 μM, 60 min. How it is done: The method further comprises inhibition of CatG-mediated degradation of laminin. Inhibition of CatG cleavage of laminin by sulfonated or phosphorylated compounds was studied using SDSPAGE. Briefly, CatG (0.8 μM) was incubated with different concentrations of the inhibitor (final concentrations; 0 μM, 10 μM, […] and 1000 μM), and laminin (20 μg). Following incubation for 60 min, the samples were quenched using SDS-PAGE loading buffer containing DTT and subjected to electrophoresis on 10% SDS-PAGE pre-cast gels. The gels were visualized by silver staining. […] In fact, based on their in vitro properties, it was reasoned that these inhibitors could protect extracellular matrix components from proteolysis mediated by proteinases activated during the inflammatory process including CatG. Accordingly, the in vitro effect of compound of Formula II on the CatG-mediated proteolysis of laminin, a non-collagenous component of ECM and basement membranes was studied. […] Thus, SDS-PAGE analyses indicate that sulfonated molecule inhibition of CatG is physiologically relevant.
Inhibition of CatG cleavage of laminin by sulfonated compounds was studied using SDSPAGE. Briefly, CatG (0.8 μM) was incubated with different concentrations of the inhibitor (final concentrations; 0 μM, 10 μM, 100 μM and 1000 μM), and laminin (20 μg). […]

Test [2] has as its target T1, CatG. The test can be described thus: Salt-dependent direct inhibition of human CatG. The format is biochemical. The conditions noted are these: for HS (Hill slope) / IC50 / ΔY (efficacy): pH 7.4, 37° C.; for Ki: estimated by IC50 to Ki conversion, noncompetitive model, read-out: Calculated Ki. From the text:
The Ki (μM) values were estimated using an IC50 to Ki conversion equation [19].
Although the sulfonated and/or phosphorylated compounds-CatG interaction is likely to be electrostatically driven, non-ionic forces may contribute to a significant extent. A significant non-ionic binding energy component increases the interaction specificity because the majority of non-ionic forces, for example, cation—π interactions, H-bonding and others depend strongly on the orientation and the distance of interacting pair of molecules. In contrast, ionic bonds are non-directional and less dependent on distance, which may increase initial interaction but offer less selectivity of recognition. […] The IC50 values were measured spectrophotometrically under various salt concentrations (100 and 200 mM), as described above. […] Subsequently, the corresponding Ki (nM) values were estimated using a formula previously reported following a classical model of noncompetitive enzyme inhibition and the results are reported below. […] Table 4 and FIG. 4.

What is called IC50 is the concentration that inhibits the measured activity by half. Broadly, the Ki is the equilibrium dissociation constant of an inhibitor or competing ligand from its target. As to `O=C(Nc1cc(C(=O)Nc2ccc(S(=O)(=O)O)cc2S(=O)(=O)O)cc(C(=O)Nc2ccc(S(=O)(=O)O)cc2S(=O)(=O)O)c1)Nc1cc(C(=O)Nc2ccc(S(=O)(=O)O)cc2S(=O)(=O)O)cc(C(=O)Nc2ccc(S(=O)(=O)O)cc2S(=O)(=O)O)c1` [Formula II, 4,4′,4″,4′-((5,5′-(carbonylbis(azanediyl))bis(isophthaloyl))tetrakis(azanediyl))tetrakis(benzene-1,3-disulfonic acid)], the “Protection of laminin from cleavage by CatG” value on CatG [1] is given as “protected completely”. Moreover, the “Decrease in potency on 2-fold increase in salt concentration” value on CatG [2] (100 vs 200 mM salt) was about 10 fold. At CatG [2] ([NaCl] 100 mM), the “HS (Hill slope)” value stood at 1.5 ± 0.3, the IC50 was determined as 90 ± 10 nM, the “ΔY (efficacy)” value was 82.5 ± 7.4% and the Ki was about 75 nM. Further, at CatG [2] ([NaCl] 200 mM), the “HS (Hill slope)” value is on record as 1.5 ± 0.3, the IC50 stood at 920 ± 150 nM, the “ΔY (efficacy)” value is reported as 75.2 ± 3.4% and the Ki is about 910 nM.
